The values that follow come from US20240368178A1, “IMIDAZOCYCLIC COMPOUND AND APPLICATION THEREOF” (DONGBAO PURPLE STAR (HANGZHOU) BIOPHARMACEUTICAL CO., LTD., priority 2021, published 2024).

The data set in a line: In vivo PK parameter testing in rats. The conditions noted are these: male SD rats. Also noted: species or system SD rat. The protocol:
Male SD rats and male cynomolgus monkeys were used as test animals, and the plasma concentration of the compound was determined and the pharmacokinetic behavior was evaluated after a single oral administration.
Two groups of healthy rats (fasted) were administered by intravenous injection (IV) and oral gavage (PO), each group with 2 rats. The vehicle was a mixture of 20% PEG400, 10% solutol, and 70% water. After mixing the compound to be tested with the vehicle, the mixture was vortexed and sonicated to prepare clear solutions of 0.2 mg/mL and 0.5 mg/mL. The intravenous injection dose for rats was 1.0 mg/kg, and the oral gavage dose was 5.0 mg/kg. After administration, the whole blood was collected at the time points of 0.083 hours, 0.25 hours, 0.5 hours, 1.0 hour, 2.0 hours, 4.0 hours, 8.0 hours, 12.0 hours, and 24.0 hours. Plasma was prepared from the whole blood and analyzed for drug concentration by LC-MS/MS.

Compound `C[C@]1(c2ccc(Cl)cn2)Oc2cccc(C3CCN(Cc4nc5sc(C(=O)O)cc5n4C[C@@H]4CCO4)CC3)c2O1` (single isomer, unassigned) [Compound 002] came in with a F % (IV 1.0 mg/kg, PO 5.0 mg/kg) of 27.1%. For the setting “intravenous 1.0 mg/kg”, the Cl amounted to 12.0 mL/min/kg and the Vd (commonly the apparent volume that relates the amount in the body to the concentration in plasma or blood) is 0.392 L/kg. Moreover, where the note is “oral gavage 5.0 mg/kg”, the “AUC (PO)” value amounted to 3.439 µM·h and the “T1/2 (PO)” value was found to be 1.61 h.
